For experiment [1], the target named is Alpha-synuclein (Homo sapiens) (UniProt P37840). The experiment in a line: Inhibition of human alpha-Synuclein aggregation at 400 uM incubated for 72 hrs under shaking condition by Thioflavin T based fluorimeter assay relative to control.
Experiment [2] has the same target. The experiment in a line: Binding affinity to human alpha-Synuclein at compound to protein molar ratio of 5:1 incubated for 3 hrs by mass spectroscopy analysis.
Experiment [3] has the same target. The experiment is described as follows: Inhibition of human alpha-Synuclein aggregation at compound:protein ratio of 1:5 incubated for 72 hrs under shaking condition by Thioflavin T based fluorimeter assay relative to control. The conditions noted are these: concentration not given here.

Consider two compounds from ChEMBL document CHEMBL5226351, “Sycosterol A, an α-Synuclein Inhibitory Sterol from the Australian Ascidian Sycozoa cerebriformis” (J Nat Prod, 2021).

Usually inhibition stands for the change of the read-out against control, counted positive when it falls.

Calls of active or inactive are those of the source. The calls are words filed in the database; no cut-off is given here.

With `CC(CCC[C@@H](C)[C@H]1[C@H](O)[C@@H](O)[C@@H]2[C@]1(C)CC[C@@H]1[C@@]3(C)CC[C@@H](O)C[C@@H]3C[C@@H](O)[C@]12O)COS(=O)(=O)O` (some centres undefined), the inhibition in experiment [1] is 46.2%. Also, the result in experiment [2] was Active.

Consider `O=C(O[C@@H]1Cc2c(O)cc(O)cc2O[C@@H]1c1cc(O)c(O)c(O)c1)c1cc(O)c(O)c(O)c1`, for which, in experiment [2], the outcome was Active. Also, in experiment [3], the inhibition is 93.6%.
